Patent publication US20250257060A1, “OXADIAZOLE COMPOUND, PHARMACEUTICAL COMPOSITION COMPRISING SAME, AND USE THEREOF” (SUZHOU GENHOUSE BIO CO., LTD., priority 2022, published 2025)

Tested on: not listed separately
Experiment: Brain-to-blood drug concentration ratio of mice
Type: in vivo
Settings: mouse, brain, 5 mg/kg PO, 1 h, read-out: Brain drug concentration
Procedure: On the day of administration, mice were weighed for actual body weight and the administration volume was calculated. In each group of 9 mice, the compound was administered by single intravenous (IV) injection or intragastric (PO) administration. Whole blood samples were collected via the orbit at prescribed time points. After blood sample collection, the samples were immediately transferred to labeled commercial sample tubes containing K2-EDTA (0.85-1.15 mg), followed by centrifugation (3200×g, 4° C., 10 min) and plasma collection. The plasma was transferred to a pre-cooled centrifuge tube, frozen in dry ice, and stored in an ultra-low temperature freezer at −60° C. or lower until the LC-MS/MS analysis. 20 μL of a plasma sample or brain tissue homogenate was taken and 80 μL of an internal standard solution (50 ng/mL solution of propafenone in acetonitrile) was added. The plate was sealed with a film sealer at 165° C., shaken on a micro oscillator (maximum vibration speed) for 10 min, and centrifuged at 4000 rpm for 20 min using a low-speed benchtop centrifuge, 10 μL of supernatant was transferred and 90 μL of acetonitrile was added. The mixture was vortexed and mixed well, and then the plate was sealed with the film sealer at 165° C. After the mixture was vortexed and mixed well, 1 μL of supernatant was taken for LC-MS/MS analysis. Plasma drug concentration data for the compounds were processed in a non-compartmental model using WinNonlin Version 6.3 (Pharsight, Mountain View, CA) pharmacokinetic software. The relevant pharmacokinetic parameters were calculated by a linear logarithmic trapezoid method.
Data processing: brain-to-blood drug concentration ratio of mice at the same time point=drug concentration in brain tissue/drug concentration in plasma

Row | Compound | concentration at 1 h
1 | O=C(N[C@@H]1CCCC[C@H]1N1Cc2ccc(-c3nnc(C(F)F)o3)cc2S1(=O)=O)N1CCOCC1 [Compound 113] | 44.8 ng/mL

Same assay, conditions: mouse, brain, 5 mg/kg PO, 2 h, read-out: Brain drug concentration

Row | Compound | concentration at 2 h
2 | O=C(N[C@@H]1CCCC[C@H]1N1Cc2ccc(-c3nnc(C(F)F)o3)cc2S1(=O)=O)N1CCOCC1 [Compound 113] | 16.2 ng/mL
3 | CC(F)(F)C(=O)N[C@@H]1CCCC(F)(F)[C@H]1N1Cc2ccc(-c3nnc(C(F)F)o3)cc2S1(=O)=O [Compound 10] | 338 ng/mL

Same assay, conditions: mouse, brain, 5 mg/kg PO, 8 h, read-out: Brain drug concentration

Row | Compound | concentration at 8 h
4 | CC(F)(F)C(=O)N[C@@H]1CCCC(F)(F)[C@H]1N1Cc2ccc(-c3nnc(C(F)F)o3)cc2S1(=O)=O [Compound 10] | 80 ng/mL

Same assay, conditions: mouse, brain/plasma, 5 mg/kg PO, 1 h

Row | Compound | Kp at 1 h
5 | O=C(N[C@@H]1CCCC[C@H]1N1Cc2ccc(-c3nnc(C(F)F)o3)cc2S1(=O)=O)N1CCOCC1 [Compound 113] | 0.03

Same assay, conditions: mouse, brain/plasma, 5 mg/kg PO, 2 h

Row | Compound | Kp at 2 h
6 | O=C(N[C@@H]1CCCC[C@H]1N1Cc2ccc(-c3nnc(C(F)F)o3)cc2S1(=O)=O)N1CCOCC1 [Compound 113] | 0.02
7 | CC(F)(F)C(=O)N[C@@H]1CCCC(F)(F)[C@H]1N1Cc2ccc(-c3nnc(C(F)F)o3)cc2S1(=O)=O [Compound 10] | 0.17

Same assay, conditions: mouse, brain/plasma, 5 mg/kg PO, 8 h

Row | Compound | Kp at 8 h
8 | CC(F)(F)C(=O)N[C@@H]1CCCC(F)(F)[C@H]1N1Cc2ccc(-c3nnc(C(F)F)o3)cc2S1(=O)=O [Compound 10] | 0.29

Same assay, conditions: mouse, plasma, 5 mg/kg PO, 1 h, read-out: Blood drug concentration

Row | Compound | concentration at 1 h
9 | O=C(N[C@@H]1CCCC[C@H]1N1Cc2ccc(-c3nnc(C(F)F)o3)cc2S1(=O)=O)N1CCOCC1 [Compound 113] | 1400 ng/mL

Same assay, conditions: mouse, plasma, 5 mg/kg PO, 2 h, read-out: Blood drug concentration

Row | Compound | concentration at 2 h
10 | O=C(N[C@@H]1CCCC[C@H]1N1Cc2ccc(-c3nnc(C(F)F)o3)cc2S1(=O)=O)N1CCOCC1 [Compound 113] | 930 ng/mL
11 | CC(F)(F)C(=O)N[C@@H]1CCCC(F)(F)[C@H]1N1Cc2ccc(-c3nnc(C(F)F)o3)cc2S1(=O)=O [Compound 10] | 2020 ng/mL

Same assay, conditions: mouse, plasma, 5 mg/kg PO, 8 h, read-out: Blood drug concentration

Row | Compound | concentration at 8 h
12 | CC(F)(F)C(=O)N[C@@H]1CCCC(F)(F)[C@H]1N1Cc2ccc(-c3nnc(C(F)F)o3)cc2S1(=O)=O [Compound 10] | 277 ng/mL

Biological target: HDAC6 (Homo sapiens (Human), UniProt Q9UBN7)
Experiment: HDAC6 enzymatic activity assay
Type: biochemical
Settings: not given
Procedure: The inhibitory activity of the compounds of the present application against HDAC6 was evaluated by an enzymatic activity assay. HDAC6 (Abcam), test compounds, and a 20 µM substrate solution (Ac-GAK(Ac)-AMC) were each added to a 384-well plate, and the plate was incubated at 37° C. for 30 min. […] and […] were added, and the plate was incubated at room temperature for 15 min. […] IC50 was obtained by fitting using GraphPadPrism 7.0 software.

Chain of HDAC6 (Q9UBN7 whole entry): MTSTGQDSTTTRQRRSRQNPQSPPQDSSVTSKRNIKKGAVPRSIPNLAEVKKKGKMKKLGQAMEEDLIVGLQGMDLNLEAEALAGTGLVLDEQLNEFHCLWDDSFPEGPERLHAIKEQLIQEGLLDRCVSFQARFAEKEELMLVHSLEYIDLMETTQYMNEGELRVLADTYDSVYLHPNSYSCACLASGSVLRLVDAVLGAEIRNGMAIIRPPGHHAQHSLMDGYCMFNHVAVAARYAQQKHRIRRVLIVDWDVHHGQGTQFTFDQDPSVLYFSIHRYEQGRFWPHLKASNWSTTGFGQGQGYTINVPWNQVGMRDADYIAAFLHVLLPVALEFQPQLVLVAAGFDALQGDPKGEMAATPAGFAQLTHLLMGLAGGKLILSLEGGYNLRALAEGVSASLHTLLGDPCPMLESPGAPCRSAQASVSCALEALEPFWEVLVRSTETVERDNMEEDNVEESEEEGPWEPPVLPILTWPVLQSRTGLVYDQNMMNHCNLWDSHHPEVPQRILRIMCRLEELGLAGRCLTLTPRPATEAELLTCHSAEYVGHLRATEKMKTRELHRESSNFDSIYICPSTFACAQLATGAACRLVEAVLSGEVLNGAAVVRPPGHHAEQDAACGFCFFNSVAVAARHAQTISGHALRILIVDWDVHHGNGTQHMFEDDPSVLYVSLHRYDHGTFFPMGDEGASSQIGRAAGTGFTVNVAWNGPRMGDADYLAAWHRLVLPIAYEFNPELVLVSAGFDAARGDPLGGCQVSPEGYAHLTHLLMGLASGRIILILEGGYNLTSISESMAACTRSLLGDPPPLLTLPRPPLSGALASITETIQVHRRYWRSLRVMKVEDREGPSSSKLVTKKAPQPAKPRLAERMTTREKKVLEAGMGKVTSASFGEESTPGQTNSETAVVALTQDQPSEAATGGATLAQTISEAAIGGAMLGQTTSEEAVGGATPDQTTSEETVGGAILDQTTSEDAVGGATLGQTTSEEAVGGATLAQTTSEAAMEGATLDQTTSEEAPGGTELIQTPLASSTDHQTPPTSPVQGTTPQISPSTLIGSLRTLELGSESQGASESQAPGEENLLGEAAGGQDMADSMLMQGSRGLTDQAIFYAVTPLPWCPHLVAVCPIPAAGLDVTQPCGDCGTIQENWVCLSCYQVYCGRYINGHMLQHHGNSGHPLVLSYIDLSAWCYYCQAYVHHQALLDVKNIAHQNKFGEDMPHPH

Row | Compound | IC50
13 | CC(F)(F)C(=O)N[C@H]1[C@H](N2Cc3ccc(-c4nnc(C(F)F)o4)cc3S2(=O)=O)CCCC1(F)F [Compound 7] | 56.7 nM
14 | CC(F)(F)C(=O)N[C@@H]1CCCC(F)(F)[C@H]1N1Cc2ccc(-c3nnc(C(F)F)o3)cc2S1(=O)=O [Compound 10] | 43.1 nM

Tested on: not listed separately
Experiment: Pharmacokinetic test in mice (IV and PO)
Type: in vivo, BALB/c mice
Settings: BALB/c, mouse, plasma, po, 5 mg/kg; read-out: C0/Cmax
Procedure: In this example, the pharmacokinetic behavior of the compounds after intravenous injection (IV) and intragastric (PO) administration in BALB/c mice was tested.
On the day of administration, mice were weighed for actual body weight and the administration volume was calculated. Each compound was tested in two groups with 3 mice in each group, one group administered by single intravenous injection and the other group of mice by single intragastric administration. Whole blood samples were collected via the orbit at prescribed time points (0.25 h, 0.5 h, 1 h, 2 h, 4 h, 8 h, and 24 h after administration). After blood sample collection, the samples were immediately transferred to labeled commercial sample tubes containing K2-EDTA (0.85-1.15 mg), followed by centrifugation (3200×g, 4° C., 10 min) and plasma collection. The plasma was transferred to a pre-cooled centrifuge tube, frozen in dry ice, and stored in an ultra-low temperature freezer at −60° C. or lower until the LC-MS/MS analysis.
Plasma concentrations were determined by a LC-MS/MS method. Plasma drug concentration data for compounds 1 and 2 were processed in a non-compartmental model using WinNonlin Version 6.3 (Pharsight, Mountain View, CA) pharmacokinetic software. The relevant pharmacokinetic parameters were calculated by a linear logarithmic trapezoid method.

Row | Compound | Cmax
15 | O=C(N[C@@H]1CCCC[C@H]1N1Cc2ccc(-c3nnc(C(F)F)o3)cc2S1(=O)=O)N1CCOCC1 [Compound 113] | 5.13 µM
16 | CC(F)(F)C(=O)N[C@@H]1CCCC(F)(F)[C@H]1N1Cc2ccc(-c3nnc(C(F)F)o3)cc2S1(=O)=O [Compound 10] | 4.77 µM

Same assay, conditions: BALB/c, mouse, plasma; mice, IV 1 mg/kg

Row | Compound | AUC(0-inf) | AUC(0-t)
17 | O=C(N[C@@H]1CCCC[C@H]1N1Cc2ccc(-c3nnc(C(F)F)o3)cc2S1(=O)=O)N1CCOCC1 [Compound 113] | 1.71 µM·h | 1.7 µM·h
18 | CC(F)(F)C(=O)N[C@@H]1CCCC(F)(F)[C@H]1N1Cc2ccc(-c3nnc(C(F)F)o3)cc2S1(=O)=O [Compound 10] | 3.68 µM·h | 3.48 µM·h

Same assay, conditions: BALB/c, mouse, plasma; mice, IV 1 mg/kg (C0)

Row | Compound | Cmax
19 | O=C(N[C@@H]1CCCC[C@H]1N1Cc2ccc(-c3nnc(C(F)F)o3)cc2S1(=O)=O)N1CCOCC1 [Compound 113] | 3.47 µM
20 | CC(F)(F)C(=O)N[C@@H]1CCCC(F)(F)[C@H]1N1Cc2ccc(-c3nnc(C(F)F)o3)cc2S1(=O)=O [Compound 10] | 1.72 µM

Same assay, conditions: BALB/c, mouse, plasma; mice, IV 1 mg/kg; read-out: MRT(0-∞)

Row | Compound | MRT inf
21 | O=C(N[C@@H]1CCCC[C@H]1N1Cc2ccc(-c3nnc(C(F)F)o3)cc2S1(=O)=O)N1CCOCC1 [Compound 113] | 0.542 h
22 | CC(F)(F)C(=O)N[C@@H]1CCCC(F)(F)[C@H]1N1Cc2ccc(-c3nnc(C(F)F)o3)cc2S1(=O)=O [Compound 10] | 2.5 h

Same assay, conditions: BALB/c, mouse, plasma; mice, IV 1 mg/kg; read-out: Vz

Row | Compound | Vd
23 | O=C(N[C@@H]1CCCC[C@H]1N1Cc2ccc(-c3nnc(C(F)F)o3)cc2S1(=O)=O)N1CCOCC1 [Compound 113] | 1.03 L/kg
24 | CC(F)(F)C(=O)N[C@@H]1CCCC(F)(F)[C@H]1N1Cc2ccc(-c3nnc(C(F)F)o3)cc2S1(=O)=O [Compound 10] | 1.5 L/kg

Same assay, conditions: BALB/c, mouse, plasma; mice, PO 5 mg/kg

Row | Compound | AUC(0-inf) | AUC(0-t) | Tmax
25 | O=C(N[C@@H]1CCCC[C@H]1N1Cc2ccc(-c3nnc(C(F)F)o3)cc2S1(=O)=O)N1CCOCC1 [Compound 113] | 8.71 µM·h | 8.64 µM·h | 0.25 h
26 | CC(F)(F)C(=O)N[C@@H]1CCCC(F)(F)[C@H]1N1Cc2ccc(-c3nnc(C(F)F)o3)cc2S1(=O)=O [Compound 10] | 21.5 µM·h | 19.9 µM·h | 0.5 h

Same assay, conditions: BALB/c, mouse, plasma; mice, PO 5 mg/kg; read-out: MRT(0-∞)

Row | Compound | MRT inf
27 | O=C(N[C@@H]1CCCC[C@H]1N1Cc2ccc(-c3nnc(C(F)F)o3)cc2S1(=O)=O)N1CCOCC1 [Compound 113] | 1.47 h
28 | CC(F)(F)C(=O)N[C@@H]1CCCC(F)(F)[C@H]1N1Cc2ccc(-c3nnc(C(F)F)o3)cc2S1(=O)=O [Compound 10] | 3.3 h

Same assay, conditions: mice, IV 1 mg/kg

Row | Compound | CLz | t½z
29 | O=C(N[C@@H]1CCCC[C@H]1N1Cc2ccc(-c3nnc(C(F)F)o3)cc2S1(=O)=O)N1CCOCC1 [Compound 113] | 19.58 mL/min/kg | 0.605 h
30 | CC(F)(F)C(=O)N[C@@H]1CCCC(F)(F)[C@H]1N1Cc2ccc(-c3nnc(C(F)F)o3)cc2S1(=O)=O [Compound 10] | 8.3 mL/min/kg | 1.9 h

Same assay, conditions: mice, PO 5 mg/kg

Row | Compound | F | t½z
31 | O=C(N[C@@H]1CCCC[C@H]1N1Cc2ccc(-c3nnc(C(F)F)o3)cc2S1(=O)=O)N1CCOCC1 [Compound 113] | 101.8% | 1.149 h
32 | CC(F)(F)C(=O)N[C@@H]1CCCC(F)(F)[C@H]1N1Cc2ccc(-c3nnc(C(F)F)o3)cc2S1(=O)=O [Compound 10] | 117.1% | 2.1 h

Tested on: acetylation level of α-tubulin in HCT116 cells
Experiment: Assay on acetylation level of α-tubulin, HCT116 cells
Type: cell-based
Settings: Homo sapiens, HCT-116, 6 h
Procedure: A375/HCT116/HCC827 cells at a logarithmic growth phase were taken, digested with a […] (trypsin), centrifuged, counted, and plated in a 96-well plate at an appropriate cell density (30,000 cells/well) at 100 µL/well, and an appropriate amount of PBS was added around the plate for water sealing. The next day, the cells were treated with the compounds at different concentrations (starting at 100 μM, 5-fold dilution, 9 concentration gradients). After 6 h, the medium was pipetted out and the cells were washed twice with 100 μL of PBST. The cells were then immobilized in 4% paraformaldehyde, and the plate was incubated at room temperature for 20 min. The stationary liquid was discarded and the cells were washed with PBST. 150 μL of special blocking buffer (containing 1% Triton-100) was added to each well for blocking at room temperature for 2 h, and the plate was washed with PBS to remove excess blocking buffer. α-tubulin (DM1A) mouse mAb and acetyl-α-tubulin (Lys40) (D20G3) XP rabbit mAb were diluted at a 1:2000 ratio with a blocking buffer containing 0.033% Triton-100. The dilutions were added to the 96-well plate and the plate was incubated overnight at 4° C. Meanwhile, a blank control group was set. The next day, the plate was washed twice with PBST. Secondary anti-mouse IgG (H+L) (DyLight™ 680 conjugate) and anti-rabbit IgG (H+L) (DyLight™ 800 conjugate) were diluted at a 1:2000 ratio with a blocking buffer containing 0.033% Triton-100. The dilutions were added to a 96-well plate and the plate was incubated at room temperature for 2 h. The plate was washed twice with PBST and once with PBS. Fluorescence signals at 700 nm and 800 nm were detected with a Li-COR Odyssey two-color near-infrared laser imager.

Row | Compound | EC50
33 | CC(F)(F)C(=O)N[C@H]1[C@H](N2Cc3ccc(-c4nnc(C(F)F)o4)cc3S2(=O)=O)CCCC1(F)F [Compound 7] | 245 nM
34 | O=C(N[C@@H]1CCCC[C@H]1N1Cc2ccc(-c3nnc(C(F)F)o3)cc2S1(=O)=O)N1CCOCC1 [Compound 113] | 239 nM
35 | CC(F)(F)C(=O)N[C@@H]1CCCC(F)(F)[C@H]1N1Cc2ccc(-c3nnc(C(F)F)o3)cc2S1(=O)=O [Compound 10] | 262 nM
